Where two headings read alike, the source gives them in different places. Numbered stars: 1 amine (or outer) side, 2 acyl side, 3 side chain; on linkers, the order of the positions; unused ones are H or OH. Bridge positions count the residues as written; N and C are the ends. Square brackets hold non-standard residues; d marks the D form. Peptide text beside a SMILES is read from it. Ala(4-thiazolyl) = N[C@@H](Cc1cscn1)C(=O)O; TBMB = c1c(C[*:1])cc(C[*:3])cc1C[*:2]; 4Pal = N[C@@H](Cc1ccncc1)C(=O)O; Agb = N=C(N)NCC[C@H](N)C(=O)O; Agp = N=C(N)NC[C@H](N)C(=O)O; Dap = NC[C@H](N)C(=O)O
Molecular target: T1, human plasma Kallikrein (Homo sapiens, UniProt P03952)
T1 construct: purchased Stratech, UK
Test: Functional enzyme inhibition assay with fluorogenic substrate Z-PheArg-AMC, human plasma Kallikrein
Format: biochemical
Conditions: for Ki: read-out: Ki; for F (Kivar/KiWT): ratio of Ki to wild type
Experimental: Functional enzyme assays were conducted in 10 mM Tris HCl, 150 mM NaCl, 10 mM MgCl2, 1 mM CaCl2) and 1 mg/mL BSA (all Sigma UK) pH7.4 at 25° C. in solid black 96 well plates. Briefly 26.5 pM human plasma Kallikrein (purchased from Stratech, UK) or 500 pM rat plasma Kallikrein (expressed and purified in house) were incubated in the absence or presence of increasing concentrations of test peptide for 15 minutes before addition of the fluorogenic substrate Z-PheArg-AMC (Enzo Lifesciences UK) to a final assay concentration of 100 μM in 4% DMSO. Release of AMC was measured using a Pherastar FS (BMG Labtech), excitation 360 nm, emission 460 nm. The rate of the linear phase of the reaction, typically 5 to 45 minutes, was calculated in MARS data analysis software (BMG labtech). The rate was then used to calculate the IC50 and Ki in Prism (GraphPad). A four parameter inhibition non-linear regression equation was used to calculate the IC50.
Peptides were dissolved as the TFA-salts in their powder form, and stock solutions were usually prepared in water. All solutions were centrifuged and filtered ([…] syringe filters) prior absorption measurement at 280 nm. […] For peptides containing non-natural amino acids with suspected chromophoric properties (i.e. NorHar, 4PhenylPro, 3Pal, 4Pal, Tic, 4GuanPhe, 4,4-BPAI, 3,3-DPA, 1NAI, 2NAI, 4BenzylPro, Ind) concentrations were determined by weighing the powder and dissolving the peptide in a defined quantity of water.

[1] = Table 24b, residue 7 modifications
[2] = Table 24c, residue 8 modifications
[3] = Table 3c, D-Alanine scan in Loop2

T1 sequence (P03952 20-638): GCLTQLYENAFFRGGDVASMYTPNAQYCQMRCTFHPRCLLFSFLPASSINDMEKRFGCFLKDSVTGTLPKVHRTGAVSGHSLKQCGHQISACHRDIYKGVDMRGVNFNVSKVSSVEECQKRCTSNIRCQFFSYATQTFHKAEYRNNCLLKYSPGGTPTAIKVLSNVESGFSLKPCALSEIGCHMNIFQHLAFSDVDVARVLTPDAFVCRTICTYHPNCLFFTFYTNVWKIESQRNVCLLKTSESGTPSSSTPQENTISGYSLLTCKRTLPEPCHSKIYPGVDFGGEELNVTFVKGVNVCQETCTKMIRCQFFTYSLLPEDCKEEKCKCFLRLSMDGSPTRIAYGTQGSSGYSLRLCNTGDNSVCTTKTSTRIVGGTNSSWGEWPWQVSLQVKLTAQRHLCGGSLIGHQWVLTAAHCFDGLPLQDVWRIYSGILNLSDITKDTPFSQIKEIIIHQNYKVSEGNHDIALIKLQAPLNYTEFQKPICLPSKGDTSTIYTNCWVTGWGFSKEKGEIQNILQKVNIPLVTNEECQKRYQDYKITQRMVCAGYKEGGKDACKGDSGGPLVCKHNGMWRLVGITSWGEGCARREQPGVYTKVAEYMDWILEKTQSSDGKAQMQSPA

For `CC(=O)N[C@H]1CSCc2cc3cc(c2)CSC[C@H](NC(=O)[C@H](CCCNC(=N)N)NC(=O)[C@H](Cc2ccc(O)cc2)NC(=O)[C@@H]2CCCN2C(=O)[C@H](Cc2ccccc2)NC(=O)[C@H](CO)NC1=O)C(=O)N[C@@H](CC(C)C)C(=O)N[C@@H](Cc1ccncc1)C(=O)N[C@@H](CCC(N)=O)C(=O)N[C@@H](CC(=O)O)C(=O)N[C@@H](CC(C)C)C(=O)N[C@H](C(N)=O)CSC3` [Ac-(06-34-18) Phe2 Tyr4 4Pal7] (Ac-CSFPYRCL[4Pal]QDLC-NH2; linker 1-7-13 via TBMB), which Ki [1] is on record?
The Ki was 79 nM.

What about the “F (Kivar/KiWT)” value (Table 24b) of the same compound?
Its value is 187.

How did the Ki [1] turn out when `CC(=O)N[C@H]1CSCc2cc3cc(c2)CSC[C@H](NC(=O)[C@H](CCCNC(=N)N)NC(=O)[C@H](Cc2ccc(O)cc2)NC(=O)[C@@H]2CCCN2C(=O)[C@H](Cc2ccccc2)NC(=O)[C@H](CO)NC1=O)C(=O)N[C@@H](CC(C)C)C(=O)N[C@@H](Cc1cscn1)C(=O)N[C@@H](CCC(N)=O)C(=O)N[C@@H](CC(=O)O)C(=O)N[C@@H](CC(C)C)C(=O)N[C@H](C(N)=O)CSC3` [Ac-(06-34-18) Phe2 Tyr4 4ThiAz7] (Ac-CSFPYRCL[Ala(4-thiazolyl)]QDLC-NH2; linker 1-7-13 via TBMB) was run?
The Ki was 14 nM.

What about the “F (Kivar/KiWT)” value (Table 24b) of the same compound?
The value was 33.

What does the source list for `CC(=O)N[C@H]1CSCc2cc3cc(c2)CSC[C@H](NC(=O)[C@H](CCCNC(=N)N)NC(=O)[C@H](Cc2ccc(O)cc2)NC(=O)[C@@H]2CCCN2C(=O)[C@H](Cc2ccccc2)NC(=O)[C@H](CO)NC1=O)C(=O)N[C@@H](CC(C)C)C(=O)N[C@@H](CCNC(=N)N)C(=O)N[C@@H](CCC(N)=O)C(=O)N[C@@H](CC(=O)O)C(=O)N[C@@H](CC(C)C)C(=O)N[C@H](C(N)=O)CSC3` [Ac-(06-34-18) Phe2 Tyr4 Agb7] (Ac-CSFPYRCL[Agb]QDLC-NH2; linker 1-7-13 via TBMB)?
Ki [1]: 2250 nM; F (Kivar/KiWT) (Table 24b): 5365

`CC(=O)N[C@H]1CSCc2cc3cc(c2)CSC[C@H](NC(=O)[C@H](CCCNC(=N)N)NC(=O)[C@H](Cc2ccc(O)cc2)NC(=O)[C@@H]2CCCN2C(=O)[C@H](Cc2ccccc2)NC(=O)[C@H](CO)NC1=O)C(=O)N[C@@H](CC(C)C)C(=O)N[C@@H](CNC(=N)N)C(=O)N[C@@H](CCC(N)=O)C(=O)N[C@@H](CC(=O)O)C(=O)N[C@@H](CC(C)C)C(=O)N[C@H](C(N)=O)CSC3` [Ac-(06-34-18) Phe2 Tyr4 Agp7] (Ac-CSFPYRCL[Agp]QDLC-NH2; linker 1-7-13 via TBMB) was tested. Which Ki [1] did it give?
The Ki was 672 nM.

What about the “F (Kivar/KiWT)” value (Table 24b) of the same compound?
The value was 1599.

Which results are given for `CC(=O)N[C@H]1CSCc2cc3cc(c2)CSC[C@H](NC(=O)[C@H](CCCNC(=N)N)NC(=O)[C@H](Cc2ccc(O)cc2)NC(=O)[C@@H]2CCCN2C(=O)[C@H](Cc2ccccc2)NC(=O)[C@H](CO)NC1=O)C(=O)N[C@@H](CC(C)C)C(=O)N[C@@H](Cc1c[nH]cn1)C(=O)N[C@@H](CC(=O)O)C(=O)N[C@@H](CC(=O)O)C(=O)N[C@@H](CC(C)C)C(=O)N[C@H](C(N)=O)CSC3` [Ac-(06-34-18) Phe2 Tyr4 Asp8] (Ac-CSFPYRCLHDDLC-NH2; linker 1-7-13 via TBMB)?
Ki [2]: 3.83 nM; F (Kivar/KiWT) (Table 24c): 9

Which results are given for `CC(=O)N[C@H]1CSCc2cc3cc(c2)CSC[C@H](NC(=O)[C@H](CCCNC(=N)N)NC(=O)[C@H](Cc2ccc(O)cc2)NC(=O)[C@@H]2CCCN2C(=O)[C@H](Cc2ccccc2)NC(=O)[C@H](CO)NC1=O)C(=O)N[C@H](C)C(=O)N[C@@H](Cc1c[nH]cn1)C(=O)N[C@@H](CCC(N)=O)C(=O)N[C@@H](CC(=O)O)C(=O)N[C@@H](CC(C)C)C(=O)N[C@H](C(N)=O)CSC3` [Ac-(06-34-18) Phe2 Tyr4 D-Ala6] (Ac-CSFPYRC[dA]HQDLC-NH2; linker 1-7-13 via TBMB)?
Ki [3]: 9450 nM; F (Kivar/KiWT) (Table 3c): 22507

Which Ki [3] does the source give for `CC(=O)N[C@H]1CSCc2cc3cc(c2)CSC[C@H](NC(=O)[C@H](CCCNC(=N)N)NC(=O)[C@H](Cc2ccc(O)cc2)NC(=O)[C@@H]2CCCN2C(=O)[C@H](Cc2ccccc2)NC(=O)[C@H](CO)NC1=O)C(=O)N[C@@H](CC(C)C)C(=O)N[C@@H](Cc1c[nH]cn1)C(=O)N[C@H](C)C(=O)N[C@@H](CC(=O)O)C(=O)N[C@@H](CC(C)C)C(=O)N[C@H](C(N)=O)CSC3` [Ac-(06-34-18) Phe2 Tyr4 D-Ala8] (Ac-CSFPYRCLH[dA]DLC-NH2; linker 1-7-13 via TBMB) here?
Its Ki is 243 nM.

What about the “F (Kivar/KiWT)” value (Table 3c) of the same compound?
Its value is 578.

Which results are given for `CC(=O)N[C@H]1CSCc2cc3cc(c2)CSC[C@H](NC(=O)[C@H](CCCNC(=N)N)NC(=O)[C@H](Cc2ccc(O)cc2)NC(=O)[C@@H]2CCCN2C(=O)[C@H](Cc2ccccc2)NC(=O)[C@H](CO)NC1=O)C(=O)N[C@@H](CC(C)C)C(=O)N[C@@H](Cc1c[nH]cn1)C(=O)N[C@@H](CCC(N)=O)C(=O)N[C@H](C)C(=O)N[C@@H](CC(C)C)C(=O)N[C@H](C(N)=O)CSC3` [Ac-(06-34-18) Phe2 Tyr4 D-Ala9] (Ac-CSFPYRCLHQ[dA]LC-NH2; linker 1-7-13 via TBMB)?
Ki [3]: 19.9 nM; F (Kivar/KiWT) (Table 3c): 47

What does the source list for `CC(=O)N[C@H]1CSCc2cc3cc(c2)CSC[C@H](NC(=O)[C@H](CCCNC(=N)N)NC(=O)[C@H](Cc2ccc(O)cc2)NC(=O)[C@@H]2CCCN2C(=O)[C@H](Cc2ccccc2)NC(=O)[C@H](CO)NC1=O)C(=O)N[C@@H](CC(C)C)C(=O)N[C@@H](Cc1c[nH]cn1)C(=O)N[C@@H](CCC(N)=O)C(=O)N[C@@H](CC(=O)O)C(=O)N[C@H](C)C(=O)N[C@H](C(N)=O)CSC3` [Ac-(06-34-18) Phe2 Tyr4 D-Ala10] (Ac-CSFPYRCLHQD[dA]C-NH2; linker 1-7-13 via TBMB)?
Ki [3]: 572 nM; F (Kivar/KiWT) (Table 3c): 1362

For `CC(=O)N[C@H]1CSCc2cc3cc(c2)CSC[C@H](NC(=O)[C@H](CCCNC(=N)N)NC(=O)[C@H](Cc2ccc(O)cc2)NC(=O)[C@@H]2CCCN2C(=O)[C@H](Cc2ccccc2)NC(=O)[C@H](CO)NC1=O)C(=O)N[C@@H](CC(C)C)C(=O)N[C@@H](CN)C(=O)N[C@@H](CCC(N)=O)C(=O)N[C@@H](CC(=O)O)C(=O)N[C@@H](CC(C)C)C(=O)N[C@H](C(N)=O)CSC3` [Ac-(06-34-18) Phe2 Tyr4 Dap7] (Ac-CSFPYRCL[Dap]QDLC-NH2; linker 1-7-13 via TBMB), which Ki [1] is on record?
Its Ki is 246 nM.

What about the “F (Kivar/KiWT)” value (Table 24b) of the same compound?
Its value is 586.

Which results are given for `CC(=O)N[C@H]1CSCc2cc3cc(c2)CSC[C@H](NC(=O)[C@H](CCCNC(=N)N)NC(=O)[C@H](Cc2ccc(O)cc2)NC(=O)[C@@H]2CCCN2C(=O)[C@H](Cc2ccccc2)NC(=O)[C@H](CO)NC1=O)C(=O)N[C@@H](CC(C)C)C(=O)N[C@@H](Cc1c[nH]cn1)C(=O)N[C@@H](CN)C(=O)N[C@@H](CC(=O)O)C(=O)N[C@@H](CC(C)C)C(=O)N[C@H](C(N)=O)CSC3` [Ac-(06-34-18) Phe2 Tyr4 Dap8] (Ac-CSFPYRCLH[Dap]DLC-NH2; linker 1-7-13 via TBMB)?
Ki [2]: 5.49 nM; F (Kivar/KiWT) (Table 24c): 13

Which results are given for `CC(=O)N[C@H]1CSCc2cc3cc(c2)CSC[C@H](NC(=O)[C@H](CCCNC(=N)N)NC(=O)[C@H](Cc2ccc(O)cc2)NC(=O)[C@@H]2CCCN2C(=O)[C@H](Cc2ccccc2)NC(=O)[C@H](CO)NC1=O)C(=O)N[C@@H](CC(C)C)C(=O)N[C@@H](Cc1c[nH]cn1)C(=O)N[C@@H](CCC(=O)O)C(=O)N[C@@H](CC(=O)O)C(=O)N[C@@H](CC(C)C)C(=O)N[C@H](C(N)=O)CSC3` [Ac-(06-34-18) Phe2 Tyr4 Glu8] (Ac-CSFPYRCLHEDLC-NH2; linker 1-7-13 via TBMB)?
Ki [2]: 2.53 nM; F (Kivar/KiWT) (Table 24c): 6
